In ChEMBL document CHEMBL1201862, “PubChem BioAssay data set” (2004):
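Test compounds were applied to cells in 96-well plates for 48 hours at 5 doses. GI50 is the concentration that inhibits growth by half.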 Calls of active or inactive are those of the source. Cut-off read from the data, not from the text of the source: active = GI50 up to about 1.1 µM and inactive = higher.

What was measured:
Assay in all cases: NCI-60 cell line screen, 48 h
CCRF-CEM = system: CCRF-CEM
IGROV-1 = system: IGROV-1
OVCAR-5 = system: OVCAR-5
SK-MEL-2 = system: SK-MEL-2
SF-268 = system: SF-268
TK-10 = system: TK-10
786-0 = system: 786-0
SNB-19 = system: SNB-19
A549 = system: A549
SF-539 = system: SF-539
T47D = system: T47D
NCI-H460 = system: NCI-H460
SK-OV-3 = system: SK-OV-3
OVCAR-8 = system: OVCAR-8
MDA-MB-231 = system: MDA-MB-231
LOX IMVI = system: LOX IMVI
U-251 = system: U-251
DU-145 = system: DU-145
NCI/ADR-RES = system: NCI/ADR-RES
HL-60 = system: HL-60
SR = system: SR
SF-295 = system: SF-295
M14 = system: M14
OVCAR-4 = system: OVCAR-4
SN12C = system: SN12C
UACC-257 = system: UACC-257
RXF 393 = system: RXF 393
SK-MEL-28 = system: SK-MEL-28
Hs-578T = system: Hs-578T
HCC 2998 = system: HCC 2998
MCF7 = system: MCF7
SNB-75 = system: SNB-75
KM12 = system: KM12
EKVX = system: EKVX
NCI-H226 = system: NCI-H226
HOP-62 = system: HOP-62
Malme-3M = system: Malme-3M
MDA-MB-435 = system: MDA-MB-435
UACC-62 = system: UACC-62
CAKI-1 = system: CAKI-1
SW-620 = system: SW-620
COLO 205 = system: COLO 205
NCI-H522 = system: NCI-H522
UO-31 = system: UO-31
OVCAR-3 = system: OVCAR-3
K562 = system: K562
HT-29 = system: HT-29
HCT-15 = system: HCT-15
PC-3 = system: PC-3
MDA-N = system: MDA-N
NCI-H23 = system: NCI-H23
ACHN = system: ACHN
SK-MEL-5 = system: SK-MEL-5
BT-549 = system: BT-549
HCT-116 = system: HCT-116
MOLT-4 = system: MOLT-4
RPMI-8226 = system: RPMI-8226
HOP-92 = system: HOP-92
A498 = system: A498

## COC(=O)C(Cc1ccc(OC)cc1O)NC(=O)OC(C)(C)C (centres undefined)
CCRF-CEM
  GI50: > 100 µM (inactive)
IGROV-1
  GI50: > 100 µM (inactive)
OVCAR-5
  GI50: > 100 µM (inactive)
SK-MEL-2
  GI50: > 100 µM (inactive)
SF-268
  GI50: > 100 µM (inactive)
TK-10
  GI50: > 100 µM (inactive)
786-0
  GI50: > 100 µM (inactive)
SNB-19
  GI50: > 100 µM (inactive)
A549
  GI50: > 100 µM (inactive)
SF-539
  GI50: > 100 µM (inactive)
T47D
  GI50: > 100 µM (inactive)
NCI-H460
  GI50: > 100 µM (inactive)
SK-OV-3
  GI50: > 100 µM (inactive)
OVCAR-8
  GI50: > 100 µM (inactive)
MDA-MB-231
  GI50: > 100 µM (inactive)
LOX IMVI
  GI50: > 100 µM (inactive)
U-251
  GI50: > 100 µM (inactive)
DU-145
  GI50: > 100 µM (inactive)
NCI/ADR-RES
  GI50: > 100 µM (inactive)
HL-60
  GI50: > 100 µM (inactive)
SR
  GI50: > 100 µM (inactive)
SF-295
  GI50: > 100 µM (inactive)
M14
  GI50: > 100 µM (inactive)
OVCAR-4
  GI50: > 100 µM (inactive)
SN12C
  GI50: > 100 µM (inactive)
UACC-257
  GI50: 22.1 µM (inactive)
RXF 393
  GI50: > 100 µM (inactive)
SK-MEL-28
  GI50: > 100 µM (inactive)
Hs-578T
  GI50: > 100 µM (inactive)
HCC 2998
  GI50: > 100 µM (inactive)
MCF7
  GI50: > 100 µM (inactive)
SNB-75
  GI50: > 100 µM (inactive)
KM12
  GI50: > 100 µM (inactive)
EKVX
  GI50: > 100 µM (inactive)
NCI-H226
  GI50: > 100 µM (inactive)
HOP-62
  GI50: > 100 µM (inactive)
Malme-3M
  GI50: 78.5 µM (inactive)
MDA-MB-435
  GI50: > 100 µM (inactive)
UACC-62
  GI50: > 100 µM (inactive)
CAKI-1
  GI50: > 100 µM (inactive)
SW-620
  GI50: > 100 µM (inactive)
COLO 205
  GI50: > 100 µM (inactive)
NCI-H522
  GI50: 96.6 µM (inactive)
UO-31
  GI50: > 100 µM (inactive)
OVCAR-3
  GI50: > 100 µM (inactive)
K562
  GI50: > 100 µM (inactive)
HT-29
  GI50: > 100 µM (inactive)
HCT-15
  GI50: > 100 µM
PC-3
  GI50: > 100 µM (inactive)
MDA-N
  GI50: > 100 µM (inactive)
NCI-H23
  GI50: 86.3 µM (inactive)
ACHN
  GI50: > 100 µM (inactive)
SK-MEL-5
  GI50: 61.7 µM (inactive)
BT-549
  GI50: > 100 µM (inactive)
HCT-116
  GI50: > 100 µM (inactive)
MOLT-4
  GI50: > 100 µM (inactive)

## O=C1c2ccccc2S(=O)(=O)c2ccccc21
CCRF-CEM
  GI50: > 100 µM (inactive)
IGROV-1
  GI50: > 100 µM (inactive)
RPMI-8226
  GI50: > 100 µM (inactive)
OVCAR-5
  GI50: > 100 µM (inactive)
SK-MEL-2
  GI50: > 100 µM (inactive)
SF-268
  GI50: > 100 µM (inactive)
TK-10
  GI50: > 100 µM (inactive)
786-0
  GI50: > 100 µM (inactive)
SNB-19
  GI50: > 100 µM (inactive)
A549
  GI50: > 100 µM (inactive)
SF-539
  GI50: > 100 µM (inactive)
T47D
  GI50: > 100 µM (inactive)
NCI-H460
  GI50: > 100 µM (inactive)
SK-OV-3
  GI50: > 100 µM (inactive)
OVCAR-8
  GI50: > 100 µM (inactive)
MDA-MB-231
  GI50: > 100 µM (inactive)
LOX IMVI
  GI50: > 100 µM (inactive)
U-251
  GI50: > 100 µM (inactive)
DU-145
  GI50: > 100 µM (inactive)
NCI/ADR-RES
  GI50: > 100 µM (inactive)
HL-60
  GI50: > 100 µM (inactive)
SF-295
  GI50: > 100 µM (inactive)
M14
  GI50: > 100 µM (inactive)
OVCAR-4
  GI50: > 100 µM (inactive)
SN12C
  GI50: > 100 µM (inactive)
UACC-257
  GI50: > 100 µM (inactive)
RXF 393
  GI50: > 100 µM (inactive)
SK-MEL-28
  GI50: > 100 µM (inactive)
HOP-92
  GI50: > 100 µM (inactive)
Hs-578T
  GI50: 72.1 µM (inactive)
HCC 2998
  GI50: > 100 µM (inactive)
A498
  GI50: > 100 µM (inactive)
MCF7
  GI50: > 100 µM (inactive)
SNB-75
  GI50: > 100 µM (inactive)
KM12
  GI50: > 100 µM (inactive)
EKVX
  GI50: 61.1 µM (inactive)
NCI-H226
  GI50: > 100 µM (inactive)
HOP-62
  GI50: > 100 µM (inactive)
Malme-3M
  GI50: > 100 µM (inactive)
MDA-MB-435
  GI50: > 100 µM (inactive)
UACC-62
  GI50: > 100 µM (inactive)
CAKI-1
  GI50: > 100 µM (inactive)
SW-620
  GI50: > 100 µM (inactive)
COLO 205
  GI50: > 100 µM (inactive)
NCI-H522
  GI50: > 100 µM (inactive)
UO-31
  GI50: > 100 µM (inactive)
OVCAR-3
  GI50: > 100 µM (inactive)
K562
  GI50: > 100 µM (inactive)
HT-29
  GI50: > 100 µM (inactive)
HCT-15
  GI50: > 100 µM
PC-3
  GI50: > 100 µM (inactive)
MDA-N
  GI50: > 100 µM (inactive)
NCI-H23
  GI50: > 100 µM (inactive)
ACHN
  GI50: > 100 µM (inactive)
SK-MEL-5
  GI50: > 100 µM (inactive)
BT-549
  GI50: > 100 µM (inactive)
HCT-116
  GI50: > 100 µM (inactive)
MOLT-4
  GI50: > 100 µM (inactive)
